Data on four compounds can be found in US10907159B2, “Methods of treating cancer by inhibition of DNA repair proteins using antisense based therapies” (SARISSA INC., priority 2015, dated 2021).

Entries after “also recorded” stand apart in the source; their conditions may differ. Like-named read-outs stand apart in the source and are kept apart here. d = 2'-deoxy (DNA); m = 2'-O-methyl

Holding throughout (format): cell-based, human
Data set [1] has as its system A549b cells. As to the kind of experiment: Proliferation of A549b cells after OLIGO/siRNA transfection (cell counting). As to conditions: for relative proliferation: FIG. 12. As for the experimental part: Cultured cell lines were maintained in minimum essential medium a with nucleosides plus 10% fetal bovine serum and penicillin (50 units/mL)/streptomycin (50 mg/L) (growth medium). Cultures were incubated in a humidified atmosphere of 5% CO2 at 37° C. Cultured cell lines were maintained and cytotoxicity assays conducted as described previously (3). Rapidly proliferating cells were utilized for establishing cultures of experimental cells, which were allowed to plate overnight in 25-cm^2 flasks prior to manipulation. An established cell line of non-small-cell lung carcinoma (NSCLC), A549b, which was propagated by serial dilution from a single cell of an A549 parent cell line, was used for the establishment of antisense activity of oligonucleotides. This cell line proliferates with a mean generation time of approximately 20 hours, and is capable of forming tumours in immunodeficient mice with a take rate of greater than 90%. Therefore, this cell line is a good model system that can be used in both in vitro and in vivo experiments to test the activity of OLIGOs.
OLIGOs were introduced into cells with the use of Lipofectamine 2000 (LFA2K) (Invitrogen, Burlington, Ontario, Canada). OLIGOs were mixed with LFA2K at a ratio of 0.2 μg/ml per 10 nM OLIGO. The mixture was prepared at 11× the final concentration to which cells were exposed, so that 200 μL was added to 2 mL of medium in which cells were plated. As controls, cells were exposed to medium alone (no treatment), LFA2K alone at concentrations equivalent to those used in combination with OLIGOs (in some experiments only the maximum LFA2K concentration was used as a control), or OLIGO having no complementarity with any human mRNA. The OLIGO/LFA2K mixtures were then incubated at room temperature for 20 minutes, according to instructions supplied with the LFA2K, followed by addition of the OLIGOs to the cell medium. The OLIGO/LFA2K mix was then incubated (37° C.) on the cells for 4 hours, after which a second volume of medium was added. Cells were then incubated for 20 hours. Following this incubation, the OLIGO-containing medium was replaced with drug-free medium (i.e. medium without OLIGOs) and the cells were incubated for an additional 4 days. Following the 4-day incubation, the proliferation of the treated cells (fold-increase in cell number) was calculated as a percentage of that of control cells. Cell numbers were enumerated on an electronic particle counter (Beckman Coulter, Mississauga, ON). For the purpose of determining the anti-proliferative effect of antisense OLIGOs, the proliferation of cells treated with antisense OLIGOs was calculated as a percent of that of cells treated with an equivalent concentration of non-complementary control OLIGO (in this case OLIGO 32) mixed with an equivalent amount of LFA2K.
OLIGO-containing medium was removed and replaced with fresh medium. Cells were incubated for 4 days, at which time cell number was counted. Proliferation was calculated as a percent of non-targeting OLIGO-treated controls.
Cells were incubated for 4 days, at which time cell number was counted. Proliferation was calculated as a percent of controls.

Data set [2] has as its system TS mRNA. As to the kind of experiment: RT-qPCR of TS mRNA in A549 cells after OLIGO transfection. As to conditions: 20 nM OLIGO, 24 hours post-transfection; FIG. 16. As for the experimental part: (§1) Briefly, A549 cells seeded at a density of 2.0×10^5 per flask were transfected with 20 nM of OLIGO specific for each target or control OLIGO using Lipofectamine 2000 as the transfection reagent. Twenty four hours post-transfection mRNA was extracted and reverse transcribed into cDNA. RT-qPCR was performed for target mRNA levels using TaqMan reagents according to established protocols.

The test system of data set [3] is BRCA2 mRNA. Description: RT-qPCR of BRCA2 mRNA in A549 cells after OLIGO transfection. To be noted: 20 nM OLIGO, 24 hours post-transfection; FIG. 16. As for the experimental part:
as §1
On the technique in general: In qPCR the cycle at which signal appears reflects the starting amount.

For data set [4], the system named is A549b cells. Description: cells. As to conditions: Homo sapiens, curves extrapolated, unit inferred, read-out: concentration of olaparib required to inhibit proliferation of A549b cells by 50% (IC50). The protocol: OLIGOs were introduced into cells with the use of Lipofectamine 2000 (LFA2K) (Invitrogen, Burlington, Ontario, Canada). OLIGOs were mixed with LFA2K at a ratio of 0.2 μg/ml per 10 nM OLIGO. The mixture was prepared at 11× the final concentration to which cells were exposed, so that 200 μL was added to 2 mL of medium in which cells were plated. After incubating at room temperature for 20 minutes, according to manufacturer's instructions, the OLIGOs were added to the cell medium. The OLIGO/LFA2K mix was then incubated (37° C.) on the cells for 4 hours, after which a second volume of medium was added. Cells were then incubated for 20 hours. Following this incubation, the OLIGO-containing medium was replaced with OLIGO-free medium.
For cells treated with the drug olaparib, for the purposes of determining whether inhibitory activity was enhanced by the OLIGO pretreatment, olaparib was added at this time, in concentrations of from 0.01 μM to 3 μM. At this point, replicate flasks from the OLIGO-treatment were used to enumerate cell content, as this varied among treatments over the initial 24-hour exposure. This was done so that the effect of treatment with olaparib could be ascertained based on the cell population that was present at the time of initiation of exposure to olaparib. Exposure to the olaparib was initiated by addition of 0.2-volume of a preparation of the drug, at 6× final concentration in growth medium, to the fresh drug-free medium on the cells (1 ml of drug into 5 ml of medium). Following a further 4-day incubation, the proliferation of the treated cells (fold-increase in cell number) was calculated as a percentage of that of control cells. Cell numbers were enumerated on an electronic particle counter (Beckman Coulter, Mississauga, ON). As indicated in Example 1, for the purpose of determining the anti-proliferative effect of antisense OLIGOs alone, the proliferation of cells treated with antisense OLIGOs was calculated as a percent of that of cells treated with an equivalent concentration of non-complementary control OLIGO (in this case OLIGO 32). However, for the purpose of determining the anti-proliferative effect of olaparib against antisense or non-complementary (control) OLIGO-treated cells, the proliferation was calculated as a percent of cells treated with the respective OLIGO.
These experiments were carried out essentially as described in Example 3, with the following changes. The drug tested was cisplatin instead of olaparib, and cisplatin was tested in concentrations ranging from 0.5 μM to 2 μM.
These experiments were carried out essentially as described in Example 3, with the following changes. The drug tested was melphalan in concentrations ranging from 2 μM to 10 μM.
These experiments were carried out essentially as described in Example 3, with the following changes. The drug tested was carboplatin at concentrations ranging from 5 μM to 40 μM.
These experiments were carried out essentially as described in Example 3, with the following changes. The drug tested was oxaliplatin was tested in concentrations ranging from 0.2 μM to 2.5 μM.
Cisplatin was added to the final concentration indicated, and as described in Example 3. Cells were incubated for 4 days, at which time cell number was counted. Proliferation was calculated as a percent of siRNA-treated, non-cisplatin-treated controls.

The test system of data set [5] is SKOV-3 cells. As to the kind of experiment: Cell proliferation assay, ASO transfection and/or drug (cell counting). To be noted: single olaparib treatment, 96 hours; FIG. 27C. As for the experimental part:
FIG. 24 illustrates that BRCA2 inhibition sensitizes ovarian cancer and breast cancer cell lines to olaparib treatment. SKOV-3 (A) and CaOV3 (B) cells were transfected with control ASO (•) or BRCA2 ASO (∘) and then treated with three different concentrations of olaparib. Proliferation was determined by cell counting 96 hours post-transfection (*p<0.05). C: BRCA2 mRNA levels were measured by qPCR 24 hours following BRCA2 ASO transfection in SKOV-3, CaOV3, 211 H and H2052 cell lines.
E: SKOV-3 cells were transfected with control or BRCA2 ASO and then treated with olaparib 24 hours post transfection. Ninety-six hours post transfection, cells were counted, plated, and re-transfected with control ASO or BRCA2 ASO and re-treated with olaparib. Cell counts were performed 96 hours post transfection (*p<0.05). […]
A: BRCA2-wild type SKOV-3 cells (black bars), […] MCF-7 cells (white bars), and BRCA2-mutated CAPAN-1 cells (grey bars) were treated simultaneously but separately with BRCA2 ASO (20 nM). […] Ninety-six hours post-transfection, cells were counted and proliferation determined (% of proliferation after control ASO treatment).
C: SKOV-3, MCF-7 and CAPAN-1 cells were treated with two different concentrations of olaparib for 96 hours. After drug treatment they were counted and proliferation was determined as a percent of that of vehicle-treated cells. […]

Data set [6] relates to MCF-7 cells. As to the kind of experiment: Cell proliferation assay, ASO and/or olaparib (cell counting). To be noted: single olaparib treatment, 96 hours, vs vehicle; FIG. 27C. The protocol:
(§2) A: BRCA2-wild type SKOV-3 cells (black bars), […] MCF-7 cells (white bars), and BRCA2-mutated CAPAN-1 cells (grey bars) were treated simultaneously but separately with BRCA2 ASO (20 nM). Due to differing growth medium requirements and to avoid fluorescent label-induced changes in drug sensitivity, cells were not co-cultured. They were treated independently, at the same time with the same materials. Ninety-six hours post-transfection, cells were counted and proliferation determined (% of proliferation after control ASO treatment).
(§3) C: SKOV-3, MCF-7 and CAPAN-1 cells were treated with two different concentrations of olaparib for 96 hours. After drug treatment they were counted and proliferation was determined as a percent of that of vehicle-treated cells.
FIG. 28 illustrates combined BRCA2 ASO and olaparib treatment decreases the proliferation of both HRR-deficient and HRR-proficient cells. […] Proliferation was determined using cell counting 96 hours post-transfection.
Four hours post-transfection, cells were seeded into 6 well dishes in appropriate experimental groups. […] Ninety-six hours post transfection, cells were collected and counted (Coulter Particle Counter). Proliferation was determined based on initial cell density and calculated as a percentage of ASO+vehicle treated cells.

For data set [7], the system named is CAPAN-1 cells. Description: Cell proliferation assay, ASO and/or drug (cell counting). As to conditions: single olaparib treatment, 96 hours, vs vehicle; FIG. 27C. As for the experimental part: as §2, §3
Four hours post-transfection, cells were seeded into 6 well dishes in appropriate experimental groups. Twenty-four hours post transfection, cells were treated with olaparib (Selleckchem) at three concentrations. Ninety-six hours post transfection, cells were collected and counted (Coulter Particle Counter). Proliferation was determined based on initial cell density and calculated as a percentage of ASO+vehicle treated cells.

For data set [8], the system named is mixed cell population SKOV-3^shBRCA2:SKOV-3^shControl 3:1. As to the kind of experiment: Co-culture model of BRCA2 heterogeneity, proliferation. As to conditions: 2.5 μM, FIG. 29A. As for the experimental part:
(§4) A: SKOV-3^shBRCA2 cells (low BRCA2) were mixed with SKOV-3^shControl cells (high BRCA2) at a 3:1 ratio, resulting in a primarily HRR-deficient mixed cell population. Parental and mixed populations were treated for the first time with olaparib (1° olaparib, 2.5 μM) or vehicle. Cells were re-plated at equal density 96 hours post-treatment. Parental and mixed populations were then treated a second time with olaparib (2° olaparib, 2.5 μM) or control vehicle. Ninety-six hours post-treatment, proliferation for all groups was determined based on cell counts and seeding density following 1° olaparib or vehicle treatment. White bars: 2° olaparib. Black bars: no 2° olaparib.
B: SKOV-3^shBRCA2 cells (low BRCA2), SKOV-3^shControl cells (high BRCA2), and a mixed cell population (3:1, low BRCA2:high BRCA2) were transfected with control ASO or BRCA2 ASO followed by treatment with vehicle or olaparib (2.5 μM). Proliferation (percent of control ASO-treated cells) was determined 96 hours post-transfection. […]
(§5) To mimic a heterogeneous tumor cell population that is predominantly HRR-deficient, we co-cultured SKOV-3^shBRCA2 (low BRCA2) and SKOV-3^shcontrol (high BRCA2) in a 3:1 ratio. The mixed cell population, along with unmixed SKOV-3^shBRCA2 and SKOV-3^shcontrol populations, was treated with olaparib (1° Olaparib), then counted, re-seeded and treated with olaparib a second time (2° Olaparib) (FIG. 32).

Data set [9] has as its system SKOV-3^shBRCA2 cells (low BRCA2). As to the kind of experiment: Co-culture model, unmixed population, proliferation. To be noted: olaparib 2.5 μM; FIG. 29A. The protocol:
as §4, §5

For 5′-UUAUCCAGGACAUCACUGC-3′ [RADb], the “inhibited proliferation of A549b cells” value in data set [1] (siRNA at 2 nM, FIG. 21) was “over 50%”.
As for “5′-gccaguGGCAACATccuuaa-3′ (antisense GCCAGUGGCAACATCCUUAA; sugars from the 5' end m6 d8 m6, all phosphorothioate, methylation of C not given here) [OLIGO 83]”, in [1] (20 nM OLIGO 83, vs OLIGO 491S), the relative proliferation result is listed as “approximately 20%”. Moreover, the “effect on TS mRNA level” value in [2] is on record as “reduction in TS mRNA”. In addition, the “effect on BRCA2 mRNA level” value in data set [3] is listed as “no significant effect on BRCA2 mRNA”.
“5′-ugcccgATACACAAacgcug -3′ (UGCCCGATACACAAACGCUG; gapmer, lower-case wings modified, type not given here) [BR3]”: the relative proliferation entry in [1] (10 nM of BR3, vs equivalent concentration of OLIGO 491S) was “approximately 85%”. For the same compound, the “anti-proliferative effect as single agent” value in [1] (A549/A549b cells, 4 h transfection, counted after 4 d, vs non-targeting control OLIGO) is listed as “inhibit proliferation of human non-small cell lung cancer A549 cells in a concentration-dependent manner; also recorded: antiproliferative on its own”.
For `O=C(c1cc(Cc2n[nH]c(=O)c3ccccc23)ccc1F)N1CCN(C(=O)C2CC2)CC1` [olaparib, reference compound], the results for the IC50 in data set [4] (in the absence of BR1 (control OLIGO 32)) and in [4] (in the presence of BR1 pretreatment) were ~5 µM and ~0.05 µM, respectively. Moreover, the “effect of olaparib on proliferation” value in data set [5] is “no effect on SKOV-3 proliferation”. For the same compound, the figures for the decreased the proliferation in [6] and in [7] were 39%±6.8% and 94%±4.6%, respectively. The “response to initial olaparib treatment” value in data set [8] (1° olaparib) is given as “sensitive to initial treatment with olaparib”. Moreover, the “response to second olaparib treatment” value in data set [8] (2° olaparib) was “completely unresponsive to a second treatment”. Moreover, the “response to olaparib after two treatments” value in data set [9] is listed as “remained sensitive to olaparib even after two treatments”.
